Counter-ions that a name gives are not always drawn.

In the first series the test system is homologous passive cutaneous anaphylaxis (PCA) reaction. Put plainly: Inhibition of homologous passive cutaneous anaphylaxis (PCA) reaction. The class given is in vivo, male Wistar rats. As to conditions: Rattus norvegicus, 0.5 h; 20 mg/kg, intravenous, rats, immediately before ovalbumin challenge; *P < 0.02, **P < 0.005; read-out: Inhibition (%) of leaked amount of dye in PCA reaction. The protocol:
The antiallergic action of the compounds of the present invention obtained by the above-mentioned preparation process was examining by the following inhibition test of homologous passive cutaneous anaphylaxis (PCA) reaction on rats.
Antiserum was obtained from rats that were immunized with ovalbumin according to the method of Mota [Immunology, 7, 681-699 (1964)]. The antiserum was diluted with physiological saline to make PCA reaction of approximately 10-15 mm in diameter. Groups of 5 male Wistar rats, 8 weeks old and weighing between 200-250 g, were passively sensitized with 0.1 ml of the diluted antiserum injected intradermally in the shaved area on the back. Fourty-eight hours after the sensitization, each above sample dissolved into physiological saline was injected into the rats intravenously via tail vein. Immediately after injection of the sample, rats were challenged with the physiological saline solution containing ovalbumin (25 mg/kg/head) and Evans blue (12.5 mg/kg/head) intravenously via tail vein so as to generate PCA reaction. Thirty minutes after the accomplishment of the challenge, the rats were exsanguinated and removed the skins from the back. The amount of the dye leaked out of the vessels was measured by the method of Katayama et al. [Microbiol. Immunol. 22, 89-101 (1978)].
The effects of samples on PCA reaction were expressed as percentage of inhibition of the leaked amount of the dye calculated by the following equation: [formula] where C is the mean leaked amount of the dye in control group, S is the mean leaked amount of dye in sample treated group. The results of the experiments were shown in Table 1, which included the effect of DSCG used as a positive control.
Consider `Cc1cccn2c(C=C(C#N)C(=O)O)c(OCCCC#N)nc12` [Sample 17, Sodium salt of 3-(2-carboxy-2-cyanovinyl)-2-(3-cyanoproxy)-8-methylimidazo[1,2-a]pyridine], for which the inhibition in vivo at 20 mg/kg was determined as 71.3%.
Consider `CCOc1cccn2c(C=C(C#N)C(=O)O)c(OC(C)CC)nc12` (stereo not drawn) [Sample 9, Sodium salt of 3-(2-carboxy-2-cyanovinyl)-8-ethoxy-2-secbutoxyimidazo[1,2-a]pyridine], for which the inhibition in vivo at 20 mg/kg turned out to be 75.3%.
Still for that read-out and setting: as for `CCCCOc1nc2c(C)cccn2c1C=C(C#N)C(=O)O` [Sample 6, Sodium salt of 2-butoxy-3-(2-carboxy-2-cyanovinyl)-8-methylimidazo[1,2-a]pyridine], the figure is 69.8%; as for `Cc1ccn2c(C=C(C#N)C(=O)O)c(OCC(C)C)nc2c1` [Sample 7, Sodium salt of 3-(2-carboxy-2-cyanovinyl)-2-isobutoxy-7-methylimidazo[1,2-a]pyridine], 65.8%; as for `COCCOc1nc2c(C)cccn2c1C=C(C#N)C(=O)O` [Sample 16, Sodium salt of 3-(2-carboxy-2-cyanovinyl)-2-(2-methoxyethoxy)-8-methylimidazo[1,2-a]pyridine], 68.9%.
With `CC(=O)NCCCOc1nc2c(C)cccn2c1C=C(C#N)C(=O)O` [Sample 14, Sodium salt of 2-(3-acetylaminoproxy)-3-(2-carboxy-2-cyanovinyl)-8-methylimidazo[1,2-a]pyridine], the inhibition in vivo at 20 mg/kg worked out at 74.8%.
On to `CC(C)Oc1nc2c(OC(C)C)cccn2c1C=C(C#N)C(=O)O` [Sample 5, Sodium salt of 3-(2-carboxy-2-cyanovinyl)-2,8-diisopropoxyimidazo[1,2-a]pyridine], for which the inhibition in vivo at 20 mg/kg was 94.6%.
On the same count and under the same terms, the same measure for `Cc1cccn2c(C=C(C#N)C(=O)O)c(OC(C)C)nc12` [Sample 2, Sodium salt of 3-(2-carboxy-2-cyanovinyl)-2-isopropoxy-8-methylimidazo[1,2-a]pyridine]: 68.4%; for `CCC(C)Oc1nc2c(OC(C)C)cccn2c1C=C(C#N)C(=O)O` (stereo not drawn) [Sample 10, Sodium salt of 3-(2-carboxy-2-cyanovinyl)-8-isopropoxy-2-secbutoxyimidazo[1,2-a]pyridine]: 92.5%; for `Cc1cccn2c(C=C(C#N)C(=O)O)c(OCCCO)nc12` [Sample 13, Sodium salt of 3-(2-carboxy-2-cyanovinyl)-2-(3-hydroxypropoxy)-8-methylimidazo[1,2-a]pyridine]: 64.3%.
With `Cc1cccn2c(C=C(C#N)C(=O)O)c(OCC3CC3)nc12` [Sample 15, Sodium salt of 3-(2-carboxy-2-cyanovinyl)-2-cyclopropylmethoxy-8-methylimidazo[1,2-a]pyridine], the inhibition in vivo at 20 mg/kg was found to be 61.8%.
For the molecule `CCOc1cccn2c(C=C(C#N)C(=O)O)c(OC(C)C)nc12` [Sample 4, Sodium salt of 3-(2-carboxy-2-cyanovinyl)-8-ethoxy-2-isopropoxyimidazo[1,2-a]pyridine], the inhibition in vivo at 20 mg/kg was 85.4%.
The same measure, in the same setting: the same measure for `COc1nc2ccc(C)cn2c1C=C(C#N)C(=O)O` [Sample 1, Sodium salt of 3-(2-carboxy-2-cyanovinyl)-2-methoxy-6-methylimidazo[1,2-a]pyridine]: 52.6%; for `CCC(C)Oc1nc2c(C)cccn2c1C=C(C#N)C(=O)O` (stereo not drawn) [Sample 8, Sodium salt of 3-(2-carboxy-2-cyanovinyl)-8-methyl-2-secbutoxyimidazo[1,2-a]pyridine]: 80.4%; for `C=CCCOc1nc2c(C)cccn2c1C=C(C#N)C(=O)O` [Sample 12, Sodium salt of 2-(3-butenyloxy)-3-(2-carboxy-2-cyanovinyl)-8-methylimidazo[1,2-a]pyridine]: 68.9%.
Consider `COc1cccn2c(C=C(C#N)C(=O)O)c(OC(C)C)nc12` [Sample 3, Sodium salt of 3-(2-carboxy-2-cyanovinyl)-2-isopropoxy-8-methoxyimidazo[1,2-a]pyridine], for which the inhibition in vivo at 20 mg/kg turned out to be 90%.
Regarding `CCCCCCOc1nc2c(C)cccn2c1C=C(C#N)C(=O)O` [Sample 11, Sodium salt of 3-(2-carboxy-2-cyanovinyl)-2-hexyloxy-8-methylimidazo[1,2-a]pyridine], the inhibition in vivo at 20 mg/kg amounted to 75.7%.

The same series, now with this note: Rattus norvegicus, iv, 0.5 h; 10 mg/kg, positive control, rats; **P < 0.005; read-out: Inhibition (%) of leaked amount of dye in PCA reaction.
`O=C(O)c1cc(=O)c2c(OCC(O)COc3cccc4oc(C(=O)O)cc(=O)c34)cccc2o1` [DSCG, disodium chromoglycate, reference compound]: the inhibition in vivo at 10 mg/kg is 75%.

Tested on in the next series: not listed separately
The experiment in a line: Acute toxicity test (LD50). As to conditions: mouse, in vivo; intravenous via tail vein, male ICR mice, 10 days' observation. How it is done:
Acute toxicity tests of the compounds of the present invention were carried out as described below. Groups of 5 male ICR mice, 5 weeks old and weighing 30±5 g, were used. The samples dissolved in physiological saline were injected intravenously via tail vein of the mice. Each LD50 was determined through 10 days' observation.
As usually defined, the LD50 is the dose at which mortality reaches 50%. On to `CC(C)Oc1nc2c(OC(C)C)cccn2c1C=C(C#N)C(=O)O` [Sample 5, Sodium salt of 3-(2-carboxy-2-cyanovinyl)-2,8-diisopropoxyimidazo[1,2-a]pyridine], for which the LD50 at 240 h is about 220 mg/kg.
With `Cc1cccn2c(C=C(C#N)C(=O)O)c(OC(C)C)nc12` [Sample 2, Sodium salt of 3-(2-carboxy-2-cyanovinyl)-2-isopropoxy-8-methylimidazo[1,2-a]pyridine], the median lethal dose (LD50) at 240 h is about 150 mg/kg.
Regarding `COc1cccn2c(C=C(C#N)C(=O)O)c(OC(C)C)nc12` [Sample 3, Sodium salt of 3-(2-carboxy-2-cyanovinyl)-2-isopropoxy-8-methoxyimidazo[1,2-a]pyridine], the LD50 at 240 h is about 350 mg/kg.

(Values after patent publication US5112833A, “1-azaindolizine derivatives, synthetic intermediates thereof and antiallergic agents containing 1-azaindolizine derivatives” (Zenyaku Kogyo Kabushiki Kaisha, priority 1988, dated 1992).)
